Assay results as given in the supplement of paper PMC10883282.

Assays:
Assay in all cases: relative viability vs DMSO control (72 h) (fraction); higher = more viable cells
A204 = system: A204
How it was run: (§1)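 Percent growth from ATPLite readings, averaged over up to triplicate wells, was used as relative viability. Sarcoma cell lines were seeded into 384-well plates for 80–90% confluence, dosed after 24 h, and kept 72 h at 37 °C, 5% CO2. Data were rescaled to a range where 1 is full and 0 is none.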

G401 = system: G401
How it was run: as §1

SYO-1 = system: SYO-1
How it was run: as §1

SW982 = system: SW982
How it was run: as §1

SW1353 = system: SW1353
How it was run: as §1

HT1080 = system: HT1080
How it was run: as §1

KHOS-NP = system: KHOS-NP
How it was run: as §1

SW684 = system: SW684
How it was run: as §1

RD-ES = system: RD-ES
How it was run: as §1

KHOS-240S = system: KHOS-240S
How it was run: as §1

SK-ES-1 = system: SK-ES-1
How it was run: as §1

SW872 = system: SW872
How it was run: as §1

N#CCC1(n2cc(-c3ncnc4[nH]ccc34)cn2)CN(C2CCN(C(=O)c3ccnc(C(F)(F)F)c3F)CC2)C1 [Itacitinib]
Conditions | relative viability
A204, 0.00017 µM | 1.02
A204, 0.00051 µM | 1.02
A204, 0.00152 µM | 1.03
A204, 0.00457 µM | 1.02
A204, 0.01372 µM | 1.04
A204, 0.04115 µM | 1.03
A204, 0.1235 µM | 1.01
A204, 0.3704 µM | 0.959
A204, 1.111 µM | 0.948
A204, 3.333 µM | 0.936
A204, 10 µM | 0.836
G401, 0.00017 µM | 0.99
G401, 0.00051 µM | 0.967
G401, 0.00152 µM | 0.921
G401, 0.00457 µM | 0.912
G401, 0.01372 µM | 0.962
G401, 0.04115 µM | 0.929
G401, 0.1235 µM | 0.902
G401, 0.3704 µM | 0.953
G401, 1.111 µM | 0.931
G401, 3.333 µM | 0.913
G401, 10 µM | 0.862
HT1080, 0.00017 µM | 1.04
HT1080, 0.00051 µM | 1.02
HT1080, 0.00152 µM | 1.04
HT1080, 0.00457 µM | 1.01
HT1080, 0.01372 µM | 1.03
HT1080, 0.04115 µM | 0.991
HT1080, 0.1235 µM | 1.03
HT1080, 0.3704 µM | 1.004
HT1080, 1.111 µM | 0.993
HT1080, 3.333 µM | 1.02
HT1080, 10 µM | 1
KHOS-240S, 0.00017 µM | 1.05
KHOS-240S, 0.00051 µM | 1.04
KHOS-240S, 0.00152 µM | 1.04
KHOS-240S, 0.00457 µM | 1.06
KHOS-240S, 0.01372 µM | 1.02
KHOS-240S, 0.04115 µM | 1.01
KHOS-240S, 0.1235 µM | 0.984
KHOS-240S, 0.3704 µM | 0.999
KHOS-240S, 1.111 µM | 0.97
KHOS-240S, 3.333 µM | 0.95
KHOS-240S, 10 µM | 0.923
KHOS-NP, 0.00017 µM | 1.087
KHOS-NP, 0.00051 µM | 1.11
KHOS-NP, 0.00152 µM | 1.09
KHOS-NP, 0.00457 µM | 1.07
KHOS-NP, 0.01372 µM | 1.06
KHOS-NP, 0.04115 µM | 1.048
KHOS-NP, 0.1235 µM | 1.035
KHOS-NP, 0.3704 µM | 1.01
KHOS-NP, 1.111 µM | 0.991
KHOS-NP, 3.333 µM | 0.942
KHOS-NP, 10 µM | 0.914
RD-ES, 0.00017 µM | 0.92
RD-ES, 0.00051 µM | 0.949
RD-ES, 0.00152 µM | 0.919
RD-ES, 0.00457 µM | 0.956
RD-ES, 0.01372 µM | 0.927
RD-ES, 0.04115 µM | 0.913
RD-ES, 0.1235 µM | 0.909
RD-ES, 0.3704 µM | 0.909
RD-ES, 1.111 µM | 0.924
RD-ES, 3.333 µM | 0.887
RD-ES, 10 µM | 0.853
SK-ES-1, 0.00017 µM | 1.04
SK-ES-1, 0.00051 µM | 0.996
SK-ES-1, 0.00152 µM | 0.977
SK-ES-1, 0.00457 µM | 1.05
SK-ES-1, 0.01372 µM | 0.979
SK-ES-1, 0.04115 µM | 0.976
SK-ES-1, 0.1235 µM | 1.01
SK-ES-1, 0.3704 µM | 0.964
SK-ES-1, 1.111 µM | 0.972
SK-ES-1, 3.333 µM | 0.884
SK-ES-1, 10 µM | 0.855
SW684, 0.00017 µM | 1.1
SW684, 0.00051 µM | 1.09
SW684, 0.00152 µM | 1.09
SW684, 0.00457 µM | 1.1
SW684, 0.01372 µM | 1.07
SW684, 0.04115 µM | 1.07
SW684, 0.1235 µM | 1.06
SW684, 0.3704 µM | 1.08
SW684, 1.111 µM | 1.1
SW684, 3.333 µM | 1.06
SW684, 10 µM | 0.977
SW872, 0.00017 µM | 1.012
SW872, 0.00051 µM | 1.03
SW872, 0.00152 µM | 0.975
SW872, 0.00457 µM | 0.972
SW872, 0.01372 µM | 0.971
SW872, 0.04115 µM | 0.94
SW872, 0.1235 µM | 0.891
SW872, 0.3704 µM | 0.911
SW872, 1.111 µM | 0.901
SW872, 3.333 µM | 0.902
SW872, 10 µM | 0.859
SW982, 0.00017 µM | 0.979
SW982, 0.00051 µM | 0.996
SW982, 0.00152 µM | 1.01
SW982, 0.00457 µM | 1
SW982, 0.01372 µM | 1.02
SW982, 0.04115 µM | 0.974
SW982, 0.1235 µM | 0.976
SW982, 0.3704 µM | 0.956
SW982, 1.111 µM | 0.983
SW982, 3.333 µM | 0.93
SW982, 10 µM | 0.928
SW1353, 0.00017 µM | 0.987
SW1353, 0.00051 µM | 1
SW1353, 0.00152 µM | 0.982
SW1353, 0.00457 µM | 0.937
SW1353, 0.01372 µM | 0.96
SW1353, 0.04115 µM | 0.939
SW1353, 0.1235 µM | 0.955
SW1353, 0.3704 µM | 0.937
SW1353, 1.111 µM | 0.933
SW1353, 3.333 µM | 0.929
SW1353, 10 µM | 0.87
SYO-1, 0.00017 µM | 0.969
SYO-1, 0.00051 µM | 0.921
SYO-1, 0.00152 µM | 0.927
SYO-1, 0.00457 µM | 0.91
SYO-1, 0.01372 µM | 0.859
SYO-1, 0.04115 µM | 0.825
SYO-1, 0.1235 µM | 0.802
SYO-1, 0.3704 µM | 0.792
SYO-1, 1.111 µM | 0.752
SYO-1, 3.333 µM | 0.72
SYO-1, 10 µM | 0.698
